Assay results as given in PubChem BioAssay AID1996.
Converted amounts (≈) assume the structure as drawn.

Settings: buffer; pH 7.4; 200.0 µM

Row | solubility kinetic | SMILES
1 | > 0.0374 mg/mL | Cc1ccc(NC(=O)C2=NNC(=O)CC2)cc1F
2 | 0.0197 mg/mL (≈ 47.8 µM) | COc1ccc(C(=O)N[C@H](C(=O)NCCc2ccc3c(c2)OCCO3)C(C)C)cc1
3 | > 0.05 mg/mL | CCOc1ccccc1NS(=O)(=O)c1ccc2[nH]c(=O)[nH]c2c1
4 | 0.036 mg/mL (≈ 124 µM) | CC(=O)Nc1ccc(C(=O)NCCN2CCOCC2)cc1
5 | 0.0067 mg/mL (≈ 15.7 µM) | COc1ccc(Cl)cc1NC(=O)CN1C(=O)NC(Cc2c[nH]c3ccccc23)C1=O (configuration not stated)
6 | 0.0025 mg/mL (≈ 9.21 µM) | COC(=O)CC(c1ccc(C(C)C)cc1)n1cccc1 (configuration not stated)
7 | > 0.0365 mg/mL | Cc1cc(C)nc(NC(=O)c2ccccc2O)n1
8 | > 0.0537 mg/mL | Cc1noc(C)c1C(=O)OCC(=O)Nc1ncc(Cl)c(C)c1Cl
9 | 0.0326 mg/mL (≈ 102 µM) | O=c1cc(O)c2c(=O)n(Cc3ccccc3)c3ccccc3c2o1
10 | 0.0465 mg/mL (≈ 131 µM) | N/C(CS(=O)(=O)c1ccccn1)=N\OC(=O)c1ccccc1Cl
11 | 0.0085 mg/mL (≈ 31.2 µM) | CC1(C)CCc2cc(-c3ccnc(=S)[nH]3)ccc2O1
12 | 0.0337 mg/mL (≈ 98.7 µM) | CCOc1ccccc1C(=O)NC(C(=O)Nc1cccnc1)C(C)C (configuration not stated)
13 | 0.0036 mg/mL (≈ 8.64 µM) | O=C(COC(=O)c1ccc(S(=O)(=O)N2CCCCC2)cc1)NCc1ccccc1
14 | > 0.0326 mg/mL | O=C(O)CSCC(=O)N1CCCCC1
15 | > 0.0465 mg/mL | CC1CC(C)CN(C(=O)COC(=O)c2ccc([N+](=O)[O-])o2)C1 (configuration not stated)
16 | > 0.0646 mg/mL | COc1cc(/C=C/C(=O)N(C)CC(=O)Nc2ccccc2SC)cc(OC)c1OC
17 | > 0.052 mg/mL | N#Cc1c(-c2ccccc2)cc(-c2ccccc2)nc1SCC(=O)O
18 | 0.0436 mg/mL (≈ 146 µM) | O=C1CC(NCc2ccc(F)cc2)C(=O)N1c1ccccc1 (configuration not stated)
19 | > 0.0348 mg/mL | Cl.NC(CO)C12CC3CC(CC(C3)C1)C2 (configuration not stated)
20 | > 0.0481 mg/mL | CC(=O)/C(C#N)=C1\NC(=O)C(Cc2ccc(C)c(Cl)c2)S1 (configuration not stated)
21 | > 0.0436 mg/mL | Cc1cc(C)c(S(=O)(=O)NCc2cccnc2)cc1C
22 | > 0.0479 mg/mL | CN(CC(=O)NCc1cccnc1)S(=O)(=O)c1ccccc1

Further lines, the compound ahead of its results:

Row | SMILES | solubility kinetic
23 | O=C1NC2(CCCCCC2)C(=O)N1Cc1cccc(Cl)c1 | 0.0158 mg/mL (≈ 51.5 µM)
24 | O=C(CSc1ccc(Cl)cc1)NCc1ccco1 | 0.0163 mg/mL (≈ 57.8 µM)
25 | CCCCNC(=O)COCc1cc(-c2ccc3c(c2)OCO3)on1 | 0.0195 mg/mL (≈ 58.7 µM)
26 | Cc1ccc(CN2C(=O)CSC(C)C2=O)cc1 (configuration not stated) | > 0.0374 mg/mL
27 | O=C(CCN1CCN(c2ccccc2F)CC1)Nc1ccccc1Cl | > 0.0543 mg/mL
28 | CCN1CCc2c(OCc3ccc(C)cc3)cccc2C1=O | 0.0189 mg/mL (≈ 64 µM)
29 | CCOCCN(C(=O)c1ccccc1Cl)c1ccccc1 | 0.0411 mg/mL (≈ 135 µM)
30 | O=C(c1sccc1Cl)N1CCN(Cc2ccc3c(c2)OCO3)CC1 | > 0.0547 mg/mL
31 | CN(C(=O)CSc1nnc(N)s1)C1CCCCC1 | > 0.043 mg/mL
32 | CN(C)Cc1ccccc1Sc1ccc2c(c1)CCCC2.O=C(O)C(=O)O | 0.0055 mg/mL
33 | Cc1cccc(NC(=O)c2ccc3c(c2)OCCO3)n1 | 0.0328 mg/mL (≈ 121 µM)
34 | Cc1cc(C(=O)N2CCCC(Nc3ccc(F)cc3)C2)n(C)n1 (configuration not stated) | > 0.0475 mg/mL
35 | Cl.O=C(Nc1cccc(Cl)c1)NC1CCN(C2CCCCC2)C1 (configuration not stated) | > 0.0537 mg/mL
36 | COc1ccc(S(=O)(=O)N2CCSCC2)cc1C(N)=O | 0.025 mg/mL (≈ 79 µM)
37 | Cc1c(C(=O)NNC(=O)c2cccnc2)cccc1[N+](=O)[O-] | > 0.045 mg/mL
38 | Cc1c2ccccc2nc2ccccc12 | 0.0079 mg/mL (≈ 40.9 µM)
39 | Cl.O=S(=O)(NCCN1CCOCC1)c1cccs1 | > 0.0469 mg/mL
40 | Cc1cccc(COc2ccc(/C=C3/C(=O)N(C)C(=S)N3C)cc2)c1 | 0.0054 mg/mL (≈ 15.3 µM)
41 | Cc1nc2c(oc3ccc(Cl)cc32)c(=O)[nH]1 | 0.0119 mg/mL (≈ 50.7 µM)
42 | Cc1cccc(-c2nnc(SCC(=O)N3CCCC3)o2)c1 | > 0.0455 mg/mL
43 | N#C/C(N)=C(/C#N)N=Cc1cccc(Cl)c1 | 0.004 mg/mL (≈ 17.3 µM)
44 | CC(C)CCn1c(=O)c(C(=O)NCc2ccco2)c(O)c2ccccc21 | < 0.0004 mg/mL
45 | O=C(Nc1nc2c(F)c(F)c(F)cc2s1)c1ccco1 | < 0.0003 mg/mL
46 | O=C1/C(=C/c2ccc([N+](=O)[O-])cc2)Oc2cc(O)ccc21 | 0.0061 mg/mL (≈ 21.5 µM)
47 | CCOC(=O)c1ccc(NC(=O)NCc2ccccc2OC)cc1 | 0.0024 mg/mL (≈ 7.31 µM)
